≈ marks a conversion by molar mass, not a printed value.
Key:
Vero = assay: Cytotoxicity against African green monkey Vero cells measured after 72 hrs by tetrazolium-based colorimetric MTT assay; assay type: toxicity, cell-based; conditions: chlorocebus sabaeus
[1] = test system: Mycobacterium tuberculosis; assay: Antibacterial activity against Mycobacterium tuberculosis incubated for 1 to 2 weeks in 7H9/DPPC/casitone/Tx medium; assay type: functional; conditions: time 1-2 weeks
[2] = test system: Mycobacterium tuberculosis; assay: Antibacterial activity against Mycobacterium tuberculosis incubated for 1 to 2 weeks in 7H9/ADC/Tw medium; assay type: functional; conditions: time 1-2 weeks
[3] = test system: Mycobacterium tuberculosis; assay: Antibacterial activity against Mycobacterium tuberculosis incubated for 1 to 2 weeks in GastFe medium; assay type: functional; conditions: time 1-2 weeks
[4] = Mycobacterium tuberculosis, read-out: MIC99

SMILES | CC50 (Vero) | MIC99 [1, 4] | MIC99 [2, 4] | MIC99 [3, 4] | MIC99 [1] | MIC99 [3] | MIC99 [2]
Nc1cccc(F)c1C(=O)NNc1ccc(Cl)cc1Cl | 1040 µM | 3.12 µM (≈ 0.982 µg/mL) | 50 µM (≈ 15.7 µg/mL) | 6.25 µM (≈ 1.96 µg/mL) | – | – | –
Nc1cccc(F)c1C(=O)NNc1cc(Cl)ccc1Cl | > 1800 µM | 6.25 µM (≈ 1.96 µg/mL) | > 50 µM | 25 µM (≈ 7.85 µg/mL) | – | – | –
Cc1nnc(-c2c(N)cccc2F)o1 | – | > 50 µM | > 50 µM | > 50 µM | – | – | –
Nc1cccc(F)c1C(=O)NNc1c(Cl)cc(Cl)cc1Cl | > 1800 µM | 0.625 µM (≈ 0.218 µg/mL) | 5 µM (≈ 1.74 µg/mL) | 1.25 µM (≈ 0.436 µg/mL) | – | – | –
Nc1cccc(F)c1C(=O)NNC1CCCCC1 | 909 µM | 9.4 µM (≈ 2.36 µg/mL) | 9.4 µM (≈ 2.36 µg/mL) | 50 µM (≈ 12.6 µg/mL) | – | – | –
Nc1cccc(F)c1C(=O)NNc1ccc(Cl)cc1 | 373 µM | 1.56 µM (≈ 0.436 µg/mL) | 12.6 µM (≈ 3.51 µg/mL) | 3.12 µM (≈ 0.874 µg/mL) | – | – | –
NC(=O)c1c(N)cccc1F | – | > 50 µM | > 50 µM | > 50 µM | – | – | –
NNC(=O)c1c(N)cccc1F | – | > 50 µM | > 50 µM | > 50 µM | – | – | –
Nc1cccc(F)c1C(=O)NNc1ccc(Cl)c(Cl)c1 | > 1800 µM | 1.56 µM (≈ 0.49 µg/mL) | 25 µM (≈ 7.85 µg/mL) | 12.5 µM (≈ 3.93 µg/mL) | – | – | –
Cl.Nc1cccc(F)c1C(=O)NNc1ccccc1 | > 1800 µM | – | – | – | 1.3 µM | 2.3 µM | –
Nc1cccc(F)c1C(=O)NNc1cccc(F)c1 | 1360 µM | 1.56 µM (≈ 0.411 µg/mL) | 12.5 µM (≈ 3.29 µg/mL) | 6.25 µM (≈ 1.65 µg/mL) | – | – | –
Nc1cccc(F)c1C(=O)NCCO | – | > 50 µM | > 50 µM | > 50 µM | – | – | –
Nc1cccc(F)c1C(=O)NNc1cccc(Cl)c1 | > 1800 µM | 1.56 µM (≈ 0.436 µg/mL) | 25 µM (≈ 6.99 µg/mL) | 6.25 µM (≈ 1.75 µg/mL) | – | – | –
Nc1cccc(F)c1C(=O)NC1CCCCC1 | – | > 50 µM | > 50 µM | > 50 µM | – | – | –
Nc1cccc(F)c1-c1nnn[nH]1 | – | > 50 µM | > 50 µM | > 50 µM | – | – | –
Nc1cccc(F)c1C(=O)NC1CC1 | – | > 50 µM | > 50 µM | > 50 µM | – | – | –
Nc1cccc(F)c1C(N1CCOCC1)C(F)(F)F (stereo not drawn) | – | 50 µM (≈ 13.9 µg/mL) | 50 µM (≈ 13.9 µg/mL) | 50 µM (≈ 13.9 µg/mL) | – | – | –
Cc1nc(-c2c(N)cccc2F)no1 | – | > 50 µM | > 50 µM | > 50 µM | – | – | –
Nc1cccc(F)c1C(=O)NNCc1ccccc1 | – | 50 µM (≈ 13 µg/mL) | > 50 µM | > 50 µM | – | – | –
Nc1cccc(F)c1C(=O)NNc1cccc([N+](=O)[O-])c1 | 1300 µM | 6.25 µM (≈ 1.81 µg/mL) | > 50 µM | 25 µM (≈ 7.26 µg/mL) | – | – | –
Nc1cccc(F)c1C(=O)NNc1ccc(C(F)(F)F)cc1 | 1360 µM | 2.84 µM (≈ 0.89 µg/mL) | 45.5 µM (≈ 14.2 µg/mL) | 11.4 µM (≈ 3.56 µg/mL) | – | – | –
Nc1cccc(F)c1C(=O)NNc1ccc(F)cc1 | 1360 µM | 1.56 µM (≈ 0.411 µg/mL) | – | 2.3 µM (≈ 0.605 µg/mL) | – | – | 9.4 µM (≈ 2.47 µg/mL)

SMILES | CC50 (Vero) | MIC99 [1, 4] | MIC99 [2, 4] | MIC99 [3, 4] | MIC99 [1] | MIC99 [3] | MIC99 [2]
Nc1cccc(F)c1C(=O)N1CCCCC1 | – | > 50 µM | > 50 µM | > 50 µM | – | – | –
Nc1cccc(F)c1C(=O)N1CCCC1 | – | > 50 µM | > 50 µM | > 50 µM | – | – | –
CONC(=O)c1c(N)cccc1F | – | > 50 µM | > 50 µM | > 50 µM | – | – | –
Nc1cccc(F)c1C(=O)NNc1ccccc1 | 2030 µM | 1.56 µM (≈ 0.383 µg/mL) | – | – | – | – | 12.5 µM (≈ 3.07 µg/mL)
COc1ccc(NNC(=O)c2c(N)cccc2F)cc1 | 1310 µM | 1.56 µM (≈ 0.429 µg/mL) | 12.5 µM (≈ 3.44 µg/mL) | 0.78 µM (≈ 0.215 µg/mL) | – | – | –
Nc1cccc(F)c1C(=O)NNc1cccc(Cl)c1Cl | > 1800 µM | 6.25 µM (≈ 1.96 µg/mL) | 50 µM (≈ 15.7 µg/mL) | 12.5 µM (≈ 3.93 µg/mL) | – | – | –
Nc1cccc(F)c1C(=O)O | 74 µM | – | 5 µM (≈ 0.776 µg/mL) | – | – | – | –
Nc1cccc(F)c1C(=O)N1CCOCC1 | – | > 50 µM | > 50 µM | > 50 µM | – | – | –
CC(C)NC(=O)c1c(N)cccc1F | – | > 50 µM | > 50 µM | > 50 µM | – | – | –
Nc1cccc(F)c1C(=O)NNc1ccc([N+](=O)[O-])cc1[N+](=O)[O-] | – | > 50 µM | > 50 µM | > 50 µM | – | – | –
Nc1cccc(F)c1C(N1CCSCC1)C(F)(F)F (stereo not drawn) | – | 50 µM (≈ 14.7 µg/mL) | 50 µM (≈ 14.7 µg/mL) | 50 µM (≈ 14.7 µg/mL) | – | – | –
Nc1cccc(F)c1C(=O)NO | – | > 50 µM | > 50 µM | > 50 µM | – | – | –
Nc1cccc(F)c1C(=O)NNc1cc(Cl)cc(Cl)c1 | – | 6.25 µM (≈ 1.96 µg/mL) | > 50 µM | 25 µM (≈ 7.85 µg/mL) | – | – | –
NNC(=O)c1ccncc1 [ISONIAZID] | – | 0.1 µM (≈ 0.0137 µg/mL) | – | – | – | – | –
CC(C)(C)OC(=O)NNC(=O)c1c(N)cccc1F | – | > 50 µM | > 50 µM | > 50 µM | – | – | –
Nc1cccc(F)c1C(=O)Nc1ccc(F)cc1 | – | > 50 µM | > 50 µM | > 50 µM | – | – | –
CN1CCN(C(=O)c2c(N)cccc2F)CC1 | – | > 50 µM | > 50 µM | > 50 µM | – | – | –
Nc1cccc(F)c1C(=O)NNc1ccccc1Cl | 792 µM | 3.12 µM (≈ 0.874 µg/mL) | 25 µM (≈ 6.99 µg/mL) | 3.12 µM (≈ 0.874 µg/mL) | – | – | –
Cl.Nc1cccc(F)c1C(=O)NNc1ccc(F)cc1 | > 1800 µM | – | – | – | 1.4 µM | 1.4 µM | –
Nc1cccc(F)c1C(=O)NC1CCC1 | – | > 50 µM | > 50 µM | > 50 µM | – | – | –
Nc1cccc(F)c1C(=O)NNc1ccccc1[N+](=O)[O-] | – | 50 µM (≈ 14.5 µg/mL) | > 50 µM | > 50 µM | – | – | –
Nc1cccc(F)c1C(Nc1ccc(F)cc1)C(F)(F)F (stereo not drawn) | – | 50 µM (≈ 15.1 µg/mL) | 50 µM (≈ 15.1 µg/mL) | 50 µM (≈ 15.1 µg/mL) | – | – | –
